Test results published in PubChem BioAssay AID651630 (Sanford-Burnham Center for Chemical Genomics, 2012).
Active and inactive are the calls of the source.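 How the source made its calls: active means lipid-stain IC50 at or below a set limit, with nuclear-stain toxicity IC50 at least five times higher; inactive means the rest.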

Columns and labels:
TAG = experiment: triacylglycerol accumulation inhibitor potency, dose response, cell-based, panel, Nile Red and DAPI fluorescence, H9c2 (AID 651630); settings: H9c2 cells, Nile Red TAG fluorescence, oleic acid;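 further: cells exposed to compound overnight before fixation and staining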
DAPI = experiment: as above; settings: H9c2 cells, DAPI nuclear fluorescence (cytotoxicity counter-readout), oleic acid

IC50 (TAG; mean of runs) | IC50 (TAG; run 1) [µM] | IC50 (TAG; run 2) [µM] | Compound | IC50 cytotoxicity (DAPI nuclear signal decrease) (DAPI; run 1) [µM] | IC50 cytotoxicity (DAPI nuclear signal decrease) (DAPI; run 2) [µM] | IC50 cytotoxicity (DAPI nuclear signal decrease) (DAPI; mean of runs)
4.91 µM | 4.31 | 5.5 | C#CCN(C[C@H]1[C@H](OC(=O)NCCCCCC)[C@H](OC(=O)NCCCCCC)C[C@@H](C(=O)OC)[C@H]1C(=O)OC)S(=O)(=O)c1ccc(C)cc1 | > 25 | > 25 | 
 | > 25 | 17.4 | CCCCCc1cc(=O)oc2c(C(CCN3CCCC3)c3cc(OC)c(OC)c(OC)c3)c(OC)cc(OC)c12 (configuration not stated) | 20.1 | 20.2 | 20.2 µM (inactive)
9.45 µM | 8.65 | 10.2 | C=CCC[C@@H](Cc1ccc(F)cc1)C(=O)OC[C@@H](NC(=O)[C@@H](CC=C)CC(=O)N[C@H](CO)Cc1ccccc1)C(C)(C)C | > 25 | > 25 | > 25 µM (inactive)
19.4 µM (inactive) | 16.3 | 22.6 | CCN(CC)CCNc1nc(-n2nc(C)cc2C)nc2sc3c(c12)CC(C)(C)OC3 | > 25 | > 25 | > 25 µM (inactive)
14.6 µM | 13.3 | 15.8 | CCCCCC(=O)Nc1nc(C)c(-c2csc(Nc3cc(OC)ccc3OC)n2)s1 | > 25 | > 25 | > 25 µM (inactive)
3.89 µM | 3.09 | 4.69 | CCOC(=O)c1ccc(NC(=O)c2nc[nH]c2C(=O)NCCCCNC(=O)c2[nH]cnc2C(=O)Nc2ccc(C(=O)OCC)cc2)cc1 | > 25 | > 25 | 
> 25 µM (inactive) | > 25 | > 25 | c1cc(C2CCCCC2)ccc1Oc1nc(N2CCOCC2)nc(N2CCOCC2)n1 | > 25 | > 25 | > 25 µM (inactive)
13 µM | 15.6 | 10.4 | COc1ccc(-c2nc(NC(=O)C3CCN(c4nc5ccccc5o4)CC3)sc2C)cc1 | > 25 | > 25 | > 25 µM (inactive)
> 25 µM (inactive) | > 25 | > 25 | O=C(Nc1cccc(-c2csc(Nc3cccc(C(F)(F)F)c3)n2)c1)c1cc([N+](=O)[O-])cc(C(F)(F)F)c1 | > 25 | > 25 | > 25 µM (inactive)
 | > 25 | 20.9 | O=C(Cn1cc[n+](CC(=O)c2ccc(Cl)cc2Cl)c1)c1ccc(Cl)cc1Cl | > 25 | > 25 | > 25 µM (inactive)
 | 21.8 | > 25 | COc1ccc(CN(C)C[C@@H]2OCCCC[C@H](C)Oc3ccc(NC(=O)Nc4ccc(F)cc4)cc3C(=O)N([C@H](C)CO)C[C@H]2C)cc1 | > 25 | > 25 | > 25 µM (inactive)
12.6 µM | 13.3 | 11.9 | COc1cc(NC(=O)c2cc([N+](=O)[O-])ccc2NC(=O)CN2CCN(c3ccccn3)CC2)cc(OC)c1 | > 25 | > 25 | > 25 µM (inactive)
> 25 µM (inactive) | > 25 | > 25 | Cc1ccc(Cn2cc(/C=N/NC(=O)Cc3nnc(NC(=O)c4ccc(C)cc4)s3)c3ccccc32)cc1 | 13.1 | 19 | 16 µM (inactive)
12.1 µM | 14.2 | 10.1 | Cc1cc(C)c2nc(-c3ccncc3)cc(C(=O)N3CCN(Cc4ccccc4Cl)CC3)c2c1 | > 25 | > 25 | > 25 µM (inactive)
 | 24.9 | > 25 | Cc1ccc2nc3n(c(=O)c2c1)-c1cc2ccccc2cc1C(=O)NC3Cc1ccc(O)cc1 (configuration not stated) | > 25 | > 25 | > 25 µM (inactive)
 | > 25 | 17.9 | C[C@H](O)C#Cc1ccc2c(c1)O[C@@H](CN(C)Cc1ccc(-c3ccccc3)cc1)[C@H](C)CN([C@@H](C)CO)S2(=O)=O | > 25 | > 25 | > 25 µM (inactive)
9.16 µM | 9.59 | 8.73 | COc1cc2c(cc1OC)C(C)N(C(=O)c1cc3c(C)cc(C)cc3[nH]1)CC2 (configuration not stated) | > 25 | > 25 | > 25 µM (inactive)

IC50 (TAG; mean of runs) | IC50 (TAG; run 1) [µM] | IC50 (TAG; run 2) [µM] | Compound | IC50 cytotoxicity (DAPI nuclear signal decrease) (DAPI; run 1) [µM] | IC50 cytotoxicity (DAPI nuclear signal decrease) (DAPI; run 2) [µM] | IC50 cytotoxicity (DAPI nuclear signal decrease) (DAPI; mean of runs)
 | 18 | > 25 | Cc1cccc(-c2ccc3[nH]c4c(c3c2)CCN2C[C@@H]([C@H](C)O)[C@@H](N(C)C(=O)Nc3ccc(F)cc3)C[C@@H]42)c1 | > 25 | > 25 | > 25 µM (inactive)
17.7 µM (inactive) | 19.1 | 16.3 | c1ccc(N(c2ccccc2)c2nc(N3CCCC3)nc(-n3ccnc3)n2)cc1 | > 25 | > 25 | > 25 µM (inactive)
> 25 µM (inactive) | > 25 | > 25 | CC(C)CCNCC(O)CON=C1c2ccccc2-c2ccccc21 (configuration not stated) | > 25 | > 25 | > 25 µM (inactive)
 | 16.1 | > 25 | COc1ccccc1NC(=O)Nc1nc(C(N)Cc2ccc(C(F)(F)F)cc2)cs1 (configuration not stated) | > 25 | > 25 | > 25 µM (inactive)
13.1 µM | 11.1 | 15.1 | Cc1cc(N2CCN(Cc3cn(C)nc3-c3ccccc3F)CC2)cc(C)n1 | > 25 | > 25 | > 25 µM (inactive)
5.19 µM | 3.71 | 6.68 | COCCn1cnc2c(c1=O)c1nc3ccccc3nc1n2/N=C/c1ccc(OC)c(OC)c1 | 23.4 | > 25 | 
8.06 µM | 7.82 | 8.31 | Cc1cccc2c(C(=O)N3CCN(c4ccccc4)CC3)cc(-c3ccncc3)nc12 | > 25 | > 25 | > 25 µM (inactive)
> 25 µM (inactive) | > 25 | > 25 | COc1cccc(Nc2nnc(SCc3cc([N+](=O)[O-])cc4c3OCOC4)s2)c1 | > 25 | > 25 | > 25 µM (inactive)
10.2 µM | 9.28 | 11.2 | CCOc1cc(C(=O)N/N=C/c2cn(-c3ccccc3)nc2-c2cc3ccccc3o2)cc(OCC)c1OCC | > 25 | > 25 | > 25 µM (inactive)
17.5 µM (inactive) | 14.4 | 20.6 | Cc1cc(NC(=O)CSc2nc(-c3cccs3)nc3ccccc23)no1 | > 25 | > 25 | > 25 µM (inactive)
11.1 µM | 8.39 | 13.8 | N#C/C(=C\Nc1ccc2cn[nH]c2c1)c1nc(-c2ccc(Cl)cc2)cs1 | 23.7 | 12 | 17.8 µM (inactive)
13.3 µM | 11.5 | 15.1 | Cc1nc2c(ccc3nc(NC(=O)Cc4cccc5ccccc45)sc32)s1 | > 25 | > 25 | > 25 µM (inactive)
> 25 µM (inactive) | > 25 | > 25 | CCN(CC)CCNC(=O)C(Cl)=C1C(Cl)=C(Cl)C(Cl)=C1Cl | 20.2 | 22.7 | 21.4 µM (inactive)
2.99 µM | 2.11 | 3.88 | Nc1c(C(=O)Nc2ccccc2)c2nc3ccccc3nc2n1-c1ccc(O)cc1 | > 25 | > 25 | 
11.3 µM | 12.4 | 10.2 | C[C@H](CO)N1C[C@H](C)[C@@H](CN(C)Cc2ccc(-c3ccccc3)cc2)Oc2c(NC(=O)Cc3ccccc3)cccc2C1=O | > 25 | > 25 | > 25 µM (inactive)
13 µM | 12.4 | 13.6 | CCCC(=O)Nc1nc2ccc(NC(=O)c3ccccc3F)cc2s1 | > 25 | > 25 | > 25 µM (inactive)
